Measured values from patent publication US12576059B2, “Methods and compositions for treatment of inflammatory disease” (priority 2021, dated 2026).

Experiments:
[1] = system: LPS induced acute lung inflammation; test: Example 1: LPS induced acute lung inflammation, interalveolar septa distance; format: in vivo, mice
From the text: LPS administration is known to promote inflammation through various mechanisms including secretion of pro-inflammatory cytokines, eicosanoids and induction of ROS. This example employed LPS to ascertain the extent of inflammation arising from ROS induced oxidation of H-AA versus D-AA in the lungs of mice. Specifically, four groups of mice were used. The first group was control mice treated with H-LA control mice. The second group of mice received a 6-week course of D-LA. It is understood that in vivo conversion of a portion of both H-LA and D-LA occurs to provide for AA and 13,13-D2-AA respectively. The third group of mice received a 6-week course of H-AA. The fourth group of mice received a 6-week course of D-AA. All groups then received a single intranasal administration of LPS to induce acute lung inflammation. The degree of the inflammatory response was based on the interalveolar septa distance where the larger the distance of the septa, the greater the degree of inflammation. The animals were sacrificed and the interalveolar septa distance was measured. Table 1 provides an average degree of spatial distance for the interalveolar septa for the results of all groups.

healthy mice = details: mouse, in vivo
Procedure: Mouse diet was from Research Diets (New Brunswick, NJ) based on fat-free AIN-93G. Fat was added at 11.3% by weight total fat and 0.25% either normal H-AA or D-AA respectively (Table 5).
Male and Female BALB/c and C57BL/6 mice were provided with standard environmental conditions i.e., 22±1° C., 55±5% humidity and 12 h light/dark cycle with free food and water access. At the age of six weeks, animals were split into 8 groups (n=160 total, 20 of each gender) and were continuously fed ad libitum on the diet containing either H-AA or D-AA for 2, 4, 6 or 8 weeks at the daily rate of ca. 5 g of diet per mouse for the duration of the study. The other two groups of animals (n=40, 20 of each gender) received neither PUFA-enriched diets nor LPS served as controls. The body weight and food intake were measured once a week. After completing the appropriate diet course, half of the mice in each group (10 females and 10 males) (i) underwent the procedure of bronchoalveolar lavage (BAL) to accomplish cytological smears, (ii) were subjected to tissue harvesting and collection of colon contents (after humane euthanasia with lethal dose of sodium thiopental, 100 mg/kg intravenously). On the ninth week of this diet course, the other half of the group was administered 1 mg/kg of intranasal (IN) LPS from Escherichia coli O111:B4 (Sigma Aldrich) 24 hours prior to BAL and subsequent euthanasia. 40 D-AA fed animals (20 males, 20 females) were switched to the H-AA diet for washout experiments. […]
Lung, stomach and colon samples were fixed with 4% formaldehyde (freshly prepared from paraformaldehyde), paraffin embedded and cut into 2-4 μm sections. For routine histology, all fixed tissue sections were stained with hematoxylin-eosin (H&E). All slides were evaluated at 10 fields each using a Genetic Pro Bino light microscope (A) and photographed with a digital camera (Delta Optical). Stomach and colon tissue sections were analyzed for signs of active and chronic inflammation, formation of lymph follicles, and hyperplasia of epithelial cells. The severity of lung injury was scored according to lung pathological changes, including interalveolar and perivascular hemorrhages, peri-vascular and peribronchial infiltration, perivascular edema, thickness of alveolar wall, alveolar space value, and emphysematous transformations. Lung tissue samples were additionally stained with commercially available Martius Scarlet Blue (MSB) stain kit (Avantik, USA) for fibrin visualization. The presence of homogeneous fibrin masses of yellow, pink or red color in the lung blood vessels were interpreted as thrombotic masses. […]
Cell free BAL fluid supernatants as well as colon tissue samples were analyzed using commercially available Mouse IL-1B ELISA Kit (R&D systems, Lot P265854, USA) and the Biotek ELx-808 microplate reader (Biotek, USA) according to the instructions recommended by the manufacturer).

[2H]C([2H])(/C=C\CCCCC)/C=C\C([2H])([2H])/C=C\C([2H])([2H])/C=C\CCCC(=O)O [D-AA, 7,7,10,10,13,13-D6-arachidonic acid]
Interalveolar space (average spatial distance for the interalveolar septa) ([1]; 6-week course, then single intranasal LPS): 4.1 μm
reduction in the spatial distance for the interalveolar septa ([1]; D-LA relative to H-LA, comparator for D-AA not stated): ~60%
alveolar spaces (healthy mice): No relevant changes
average thickness of interalveolar septa, H-AA versus D-AA (healthy mice): did not significantly differ
tolerability (healthy mice): well tolerated without apparent adverse reactions
